Measurements: patent US20250090576A1, “METHODS FOR TREATING NONTUBERCULOUS MYCOBACTERIA DISEASES” (Microbion Corporation, priority 2022, published 2025)
≈ marks a conversion by molar mass, not a printed value. Where two headings read alike, the source gives them in different places.

Tests used:
[1] = system: M. abscessus strain 19977; assay: MIC broth dilution, growth by turbidity/OD 595 nm; assay type: cell-based; settings: for Sensitivity phenotype (R/I/S): 19977; for MIC: Mycobacteroides abscessus
Method: (§1) Mycobacteria strains were used to determine MICs of BisEDT and amikacin. Strains included cystic fibrosis patient isolates from National Jewish Hospital. A range of high dose to low dose of antibiotics was used to determine bacteria susceptibility. M. avium strain 104, M. avium strain 3388, and CF patient strain DNA00133 were grown to log phase (7 days) while M. abscessus strain 19977, CF patient strain DNA00703, and CF patient strain DNA01715 achieved log phase (4 days) on 7H10 middlebrook media plates supplemented with 10% OADC (Oleic acid, Albumin, Dextrose, Catalase). […] For BisEDT, two types of compound physical states were tested. First, BisEDT was solubilized in DMSO (furthermore labeled soluble BisEDT). Second, BisEDT was made in suspension to mimic in vivo studies (furthermore labeled insoluble BisEDT). […] Control tubes containing no antibiotics were also included for each antibiotic tested. Inoculums of […] bacteria for each strain was measured with optical density (O.D.) at 595 nm. 10 μl of these inoculums were added to each antibiotic tube and incubated in a shaking incubator at 37° C. and 200 rpm. Slow growing stains were measured for growth after 10 days incubation while fast growing strains were incubated for 5 days. After incubation, 100 μl from each tube was pulled and placed in a 96-well plate for O.D. reading. Turbidity determined sensitive, intermediate, or resistant bacteria.

[2] = system: M. avium strain 3388 (MAH 3388); assay: MIC broth dilution, growth by turbidity/OD 595 nm; assay type: cell-based; settings: for Sensitivity phenotype (R/I/S): MAH 3388; for MIC: Mycobacterium avium
Method: as §1

[3] = system: CF patient strain DNA00133; assay: MIC broth dilution, growth by turbidity/OD 595 nm; assay type: cell-based, M. avium; settings: for MIC: Mycobacterium avium
Method: as §1

[4] = system: CF patient strain DNA00703; assay: MIC broth dilution, growth by turbidity/OD 595 nm; assay type: cell-based, M. abscessus; settings: for MIC: Mycobacteroides abscessus
Method: as §1

[5] = system: CF patient strain DNA01715; assay: MIC broth dilution, growth by turbidity/OD 595 nm; assay type: cell-based, M. abscessus; settings: for MIC: Mycobacteroides abscessus
Method: as §1

[6] = system: M. abscessus MABS1; assay: MIC (Table 8); assay type: cell-based; settings: Mycobacteroides abscessus
[7] = system: M. abscessus MABS2; assay: MIC (Table 8); assay type: cell-based; settings: Mycobacteroides abscessus
[8] = system: M. abscessus MABS4; assay: MIC (Table 8); assay type: cell-based; settings: Mycobacteroides abscessus
[9] = system: M. abscessus MABS7; assay: MIC (Table 8); assay type: cell-based; settings: Mycobacteroides abscessus
[10] = system: M. abscessus MABS1 biofilm; assay: MBEC assay (minimum biofilm eradication concentration); assay type: cell-based; settings: 18 h challenge
Excerpt: (§2) In this study the MBEC assay was followed as described in the Innovotech Procedural Manual, version 2.1 with minor modifications to assess the antibiofilm activity of the antimicrobial compounds under investigation. The MBEC value refers to the Minimum Biofilm Eradication Concentration of each antimicrobial for each strain. The MBEC value is defined as the minimum antibiotic concentration where the optical density (OD) value at recovery is less than 10% of the control OD value and there is no growth observed with visual examination of the wells.
(§3) Step 1: Inoculation. For resuscitation, all strains were streaked on TSA plates, except for the mycobacteria which were streaked on 7H10 media, from the frozen stocks, and grew overnight at 37° C. (Table 6). From the plate, one colony was picked for inoculation in organism specific medium (OSM) and grown in a shaker incubator at 37° C. at 225 RPM until mid-log phase (OD 0.2-0.8). At mid log phase the culture was diluted in OSM medium (Table 6) to an OD of 0.05. 150 μL of it were aliquoted in each corresponding well in a 96-well MBEC plate (inoculation plate). Subsequently, the MBEC plates were incubated static at 37° C. for the appropriate time for each species (Table 7). During incubation, biofilm formed on the pegs.
(§4) Step 2: Challenge. Following incubation, the peg lid with the biofilm was washed twice in PBS and placed on a second 96-well plate with 200 μl of antibiotic dilutions (challenge plate). The challenge plate was then incubated at 37° C. for 18 h to allow exposure of the biofilm to antibiotics.
(§5) Step 3: Recovery. In the final step, the peg lid (with the biofilm after treatment with the antibiotics) was washed again twice in PBS and placed on a third 96-well plate (recovery plate) with 200 μl growth medium in each well to allow growth of any bacterial cells resistant to antibiotics at any concentration. The recovery of resistant cells was assessed by an end-point measurement of the optical density at 600 nm (OD600) for each well with a plate reader (FIG. 4).

[11] = system: M. abscessus MABS11 biofilm; assay: as above; assay type: cell-based; settings: 18 h challenge
Excerpt: as §2, §3, §4, §5

[12] = system: M. abscessus MABS2 biofilm; assay: as above; assay type: cell-based; settings: 18 h challenge
Excerpt: as §2, §3, §4, §5

[13] = system: M. abscessus MABS4 biofilm; assay: as above; assay type: cell-based; settings: 18 h challenge
Excerpt: as §2, §3, §4, §5

[14] = system: M. abscessus MABS7 biofilm; assay: as above; assay type: cell-based; settings: 18 h challenge
Excerpt: as §2, §3, §4, §5

[15] = system: M. abscessus MABS9 biofilm; assay: as above; assay type: cell-based; settings: 18 h challenge
Excerpt: as §2, §3, §4, §5

NCC[C@H](O)C(=O)N[C@@H]1C[C@H](N)[C@@H](O[C@H]2O[C@H](CN)[C@@H](O)[C@H](O)[C@H]2O)[C@H](O)[C@H]1O[C@H]1O[C@H](CO)[C@@H](O)[C@H](N)[C@H]1O [amikacin]
Sensitivity phenotype (R/I/S) ([1]; 1 μg/mL): R | Sensitivity phenotype (R/I/S) ([1]; 2 μg/mL): R | Sensitivity phenotype (R/I/S) ([1]; 4 μg/mL): R | Sensitivity phenotype (R/I/S) ([1]; 8 μg/mL): R | Sensitivity phenotype (R/I/S) ([1]; 16 μg/mL): R | Sensitivity phenotype (R/I/S) ([1]; 32 μg/mL): S | Sensitivity phenotype (R/I/S) ([1]; 64 μg/mL): S | Sensitivity phenotype (R/I/S) ([1]; 128 μg/mL): S | MIC ([1]; M. abscessus strain 19977 (Table 4), read-out: MIC determined for the strain, used for treatment of infected macrophages): 32 µg/mL (≈ 54.6 µM) | MIC ([1]; M. abscessus strain 19977, read-out: MIC): 32 µg/mL (≈ 54.6 µM) | Sensitivity phenotype (R/I/S) ([2]; 1 μg/mL): R | Sensitivity phenotype (R/I/S) ([2]; 2 μg/mL): R | Sensitivity phenotype (R/I/S) ([2]; 4 μg/mL): I | Sensitivity phenotype (R/I/S) ([2]; 8 μg/mL): S | Sensitivity phenotype (R/I/S) ([2]; 16 μg/mL): S | Sensitivity phenotype (R/I/S) ([2]; 32 μg/mL): S | Sensitivity phenotype (R/I/S) ([2]; 64 μg/mL): S | Sensitivity phenotype (R/I/S) ([2]; 128 μg/mL): S | MIC ([2]; M. avium strain 3388 (Table 3), read-out: MIC determined for the strain, used for treatment of infected macrophages): 8 µg/mL (≈ 13.7 µM) | MIC ([2]; M. avium strain 3388, read-out: MIC): 8 µg/mL (≈ 13.7 µM) | Sensitivity phenotype (R/I/S) ([3]; 1 μg/mL): R | Sensitivity phenotype (R/I/S) ([3]; 2 μg/mL): R | Sensitivity phenotype (R/I/S) ([3]; 4 μg/mL): R | Sensitivity phenotype (R/I/S) ([3]; 8 μg/mL): R | Sensitivity phenotype (R/I/S) ([3]; 16 μg/mL): R | Sensitivity phenotype (R/I/S) ([3]; 32 μg/mL): R | Sensitivity phenotype (R/I/S) ([3]; 64 μg/mL): R | Sensitivity phenotype (R/I/S) ([3]; 128 μg/mL): R | MIC [3]: > 128 µg/mL | MIC ([3]; M. avium strain 1333 (Table 3), read-out: MIC determined for the strain, used for treatment of infected macrophages): 8 µg/mL (≈ 13.7 µM) | Sensitivity phenotype (R/I/S) ([4]; 1 μg/mL): R | Sensitivity phenotype (R/I/S) ([4]; 2 μg/mL): R | Sensitivity phenotype (R/I/S) ([4]; 4 μg/mL): R | Sensitivity phenotype (R/I/S) ([4]; 8 μg/mL): R | Sensitivity phenotype (R/I/S) ([4]; 16 μg/mL): I | Sensitivity phenotype (R/I/S) ([4]; 32 μg/mL): I | Sensitivity phenotype (R/I/S) ([4]; 64 μg/mL): S | Sensitivity phenotype (R/I/S) ([4]; 128 μg/mL): S | MIC ([4]; M. abscessus strain 00703 (Table 4), read-out: MIC determined for the strain, used for treatment of infected macrophages): 64 µg/mL (≈ 109 µM) | MIC ([4]; M. abscessus strain from patient 00703, read-out: MIC): 64 µg/mL (≈ 109 µM) | Sensitivity phenotype (R/I/S) ([5]; 1 μg/mL): R | Sensitivity phenotype (R/I/S) ([5]; 2 μg/mL): R | Sensitivity phenotype (R/I/S) ([5]; 4 μg/mL): R | Sensitivity phenotype (R/I/S) ([5]; 8 μg/mL): I | Sensitivity phenotype (R/I/S) ([5]; 16 μg/mL): S | Sensitivity phenotype (R/I/S) ([5]; 32 μg/mL): S | Sensitivity phenotype (R/I/S) ([5]; 64 μg/mL): S | Sensitivity phenotype (R/I/S) ([5]; 128 μg/mL): S | MIC ([5]; M. abscessus strain 01715 (Table 4), read-out: MIC determined for the strain, used for treatment of infected macrophages): 16 µg/mL (≈ 27.3 µM) | MIC ([5]; M. abscessus strain from patient 01715, read-out: MIC): 16 µg/mL (≈ 27.3 µM) | MIC [6]: 16 µg/mL (≈ 27.3 µM) | MIC [7]: 32 µg/mL (≈ 54.6 µM) | MIC [8]: 4 µg/mL (≈ 6.83 µM) | MIC [9]: 2 µg/mL (≈ 3.42 µM) | MBEC [10]: >128 µg/mL | MBEC [11]: >16 µg/mL | MBEC [12]: >512 µg/mL | MBEC [13]: 8 µg/mL | MBEC ([13]; listed as Amikacin): <8 µg/mL | MBEC [14]: >16 µg/mL | MBEC [15]: >64 µg/mL
